The results in this text go back to patent US20220218732A1, “Selective Inhibitors Of Protein Arginine Methyltransferase 5 (PRMT5)” (Prelude Therapeutics, Incorporated, priority 2019, published 2022).

SMILES strings stand for the structures. Counter-ions that a name gives are not always drawn. Like-named read-outs stand apart in the source and are kept apart here.

Series [1] deals with Symmetric Di-Methyl Arginine (sDMA) marks in Granta-519 cell line. As to the kind of experiment: Cellular assay: Western blot of sDMA (SmD3me2s) and H3R8me2s marks in Granta cells, 3 days, IC50. The format is cell-based. The settings on record: Homo sapiens, 72 h, Table 7. On the technique in general: Immunoblotting shows a protein as a band on a membrane.
Series [2] concerns Type II Collagen-Induced Arthritis (CIA) in female Lewis rats. The series can be described thus: Rat type II collagen-induced arthritis (CIA) model. The format is in vivo. The settings on record: 15 mg/kg PO QD. As for the experimental part:
Female Lewis rats were injected intradermally/subcutaneously (ID/SC) with porcine type II collagen to induce arthritis on Study Days 0 & 7. Rats were then dosed once daily (QD) on Study Days 0-24 (developing) or Days 6-24 (semi-established) by the oral (PO) route with Example 92 (15 mg/kg) or vehicle (0.5% Na CMC+0.5% Tween80, suspension). Rats were euthanized for necropsy on Study Day 25. Efficacy evaluation was based daily ankle diameter caliper measurements, terminal hind paw weights, and histopathology of ankles and knees.

Series [3] is described as follows: Rat non-crossover PK study of Example 92. It is filed as in vivo. The method, then: In a rat (SD, male, non-fasted) non-crossover PK study, Example 92 was dosed at 1 mg/kg (DMA: 20% HPBCD=5:95, solution) via i.v. administration (N=2) and 1 mg/kg (0.5% Na CMC+0.5% Tween80, solution) via oral gauge (p.o.) (N=2).
Series [4] can be described thus: Rat non-crossover cassette PK study of Example 36. The format is in vivo. The settings on record: rat SD male non-fasted, 2 mg/kg p.o. The method, then:
In a rat (SD, male, non-fasted) non-crossover cassette PK study, Example 36 was dosed at 0.25 mg/kg via i.v. administration (N=3) and 2 mg/kg via oral gauge (p.o.) (N=3) with other 3 compounds.

The next series deals with PRMT5/MEP50 complex (Homo sapiens, UniProt O14744). As to the kind of experiment: Biochemical assay: PRMT5/MEP50 methylation of histone H2A with 3H-SAM, filter plate scintillation. The method, then: Compounds were solubilized, and 3-fold diluted in 100% DMSO. […] Standard reactions were performed in a total volume of 50 μl in assay buffer, with histone H2A (5 μM final) as substrate. To this was added the PRMT5/MEP50 complex diluted to provide a final assay concentration of 5 nM and the compounds were allowed to preincubate for 15 to 20 minutes at room temperature. The reaction was initiated by adding S-[3H-methyl]-adenosyl-L-methionine (PerkinElmer) to final concentration of 1 μM. Following a 60 minutes incubation at 30° C., the reaction was stopped by adding 100 μL of 20% TCA. Each reaction was spotted onto filter plate (MultiScreen FB Filter Plate, Millipore), and washed 5 times with PBS buffer, Scintillation fluid was added to the filter plate and read in a scintillation counter. IC50 values were determined by fitting the data to the standard 4 parameters with Hill Slope using GraphPad Prism software.
Sequence of PRMT5/MEP50 complex (O14744 whole entry, species assumed): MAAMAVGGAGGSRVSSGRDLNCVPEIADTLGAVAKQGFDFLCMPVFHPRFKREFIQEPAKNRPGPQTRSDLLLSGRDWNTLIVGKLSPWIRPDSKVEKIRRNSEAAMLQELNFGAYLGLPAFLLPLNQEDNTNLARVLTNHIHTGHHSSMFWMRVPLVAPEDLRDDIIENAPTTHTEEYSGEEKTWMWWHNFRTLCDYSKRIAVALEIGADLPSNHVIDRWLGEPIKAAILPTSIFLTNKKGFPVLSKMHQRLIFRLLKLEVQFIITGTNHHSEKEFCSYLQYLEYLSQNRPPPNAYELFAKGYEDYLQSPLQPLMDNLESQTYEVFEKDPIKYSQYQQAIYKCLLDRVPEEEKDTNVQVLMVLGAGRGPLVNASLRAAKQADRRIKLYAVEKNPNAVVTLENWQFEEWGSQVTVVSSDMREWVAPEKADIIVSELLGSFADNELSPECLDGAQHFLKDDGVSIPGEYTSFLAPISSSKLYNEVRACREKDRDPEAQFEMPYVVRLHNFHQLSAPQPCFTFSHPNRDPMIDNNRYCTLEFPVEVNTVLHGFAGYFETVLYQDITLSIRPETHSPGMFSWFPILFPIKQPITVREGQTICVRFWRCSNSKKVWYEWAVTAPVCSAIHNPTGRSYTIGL
Sequence of PRMT5/MEP50 complex (Q9BQA1 whole entry partner, species assumed): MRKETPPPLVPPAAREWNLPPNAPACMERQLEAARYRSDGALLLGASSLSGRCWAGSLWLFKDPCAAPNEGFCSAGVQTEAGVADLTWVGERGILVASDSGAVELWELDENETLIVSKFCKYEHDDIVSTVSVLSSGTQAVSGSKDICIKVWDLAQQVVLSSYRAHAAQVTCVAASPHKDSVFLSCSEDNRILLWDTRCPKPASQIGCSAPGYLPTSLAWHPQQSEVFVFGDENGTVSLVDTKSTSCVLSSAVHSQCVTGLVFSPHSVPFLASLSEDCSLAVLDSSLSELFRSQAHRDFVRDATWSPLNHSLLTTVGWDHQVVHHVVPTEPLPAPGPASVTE

[5] abbreviates: developing mode (Days 0-24), P<0.001.

In turn, `CO/N=c1\nc[nH]c2c1ccn2[C@@H]1O[C@H]([C@H](O)c2ccc(Cl)c(Cl)c2)[C@@H](O)[C@H]1O` [Example 69, 7-((2R,3R,4S,5R)-5-((R)-(3,4-dichlorophenyl)(hydroxy)methyl)-3,4-dihydroxytetrahydrofuran-2-yl)-1,7-dihydro-4H-pyrrolo[2,3-d]pyrimidin-4-one O-methyl oxime hydrochloride] gave an IC50 in series [1] of 28 nM.
As for `CO/N=c1\[nH]cnc2c1ncn2[C@@H]1O[C@H]([C@](C)(O)c2ccc(Cl)c(Cl)c2)[C@@H](O)[C@H]1O` [Example 92, (2S,3S,4R,5R)-2-[(1R)-1-(3,4-dichlorophenyl)-1-hydroxy-ethyl]-5-[(6Z)-6-methoxyimino-1H-purin-9-yl]tetrahydrofuran-3,4-diol], the “histopathology parameters in ankles and knees” value in series [2] (both modes, versus vehicle controls) is “significantly inhibited all histopathology parameters”. Also, the “reduction in ankle diameter” value stood at 63% in series [2] (setting [5]) and 34% in series [2] (semi-established mode (Days 6-24), P<0.05). The “reduction in hind paw weight” value in series [2] (setting [5]) was 67%; in series [2] (semi-established mode (Days 6-24), P<0.01), 51%. For the same compound, the “average dose normalized AUC0-inf” value in series [3] (rat SD male non-fasted, 1 mg/kg p.o.) is 2184 ng·kg·h/mL/mg.
Take `C[C@@](O)(c1ccc(Cl)c(Cl)c1)[C@H]1O[C@@H](n2cnc3c(N)ncnc32)[C@H](O)[C@@H]1O` [Example 1-C, (2R,3R,4S,5S)-2-(6-amino-9H-purin-9-yl)-5-((R)-1-(3,4-dichlorophenyl)-1-hydroxyethyl)tetrahydrofuran-3,4-diol]: in series [3] (rat, after dosing of Example 92), the “metabolite in blood samples” value is recorded as “detected”. In addition, the “average of AUC0-int of metabolite” value in series [3] (rat, metabolite after dosing of Example 92) was 284 ng·kg·h/mL/mg.
With `CO/N=c1/nc[nH]c2c1ccn2[C@@H]1O[C@H]([C@H](O)c2ccc(Cl)cc2)[C@@H](O)[C@H]1O` [Example 36, (2R,3S,4R,5R)-2-[(R)-(4-chlorophenyl)-hydroxy-methyl]-5-(-4-methoxyimino-1H-pyrrolo[2,3-d]pyrimidin-7-yl]tetrahydrofuran-3,4-diol], the “average dose normalized AUC” value in series [4] amounted to 1738 ng·kg·h/mL/mg.
Turning to `CCO/N=c1\nc[nH]c2c1ccn2[C@@H]1OC([C@](C)(O)c2ccc(Cl)cc2)[C@@H](O)[C@H]1O` (stereo partly drawn) [Example 83, 7-((2R,3R,4S)-5-((R)-1-(4-chlorophenyl)-1-hydroxyethyl)-3,4-dihydroxytetrahydrofuran-2-yl)-1,7-dihydro-4H-pyrrolo[2,3-d]pyrimidin-4-one O-ethyl oxime], the IC50 on PRMT5/MEP50 complex (Table 7, histone H2A substrate, 5 nM enzyme, read-out: PRMT5/MEP50 IC50) was 29.1 nM; in series [1], 97 nM.
On to `C[C@@H](c1ccc(Cl)cc1)[C@H]1O[C@@H](n2ccc3c(N)ncnc32)[C@H](O)[C@@H]1O` [Example 5-C, (2R,3R,4S,5R)-2-(4-amino-7H-pyrrolo[2,3-d]pyrimidin-7-yl)-5-((S)-1-(4-chlorophenyl)ethyl)tetrahydrofuran-3,4-diol hydrochloride], for which the IC50 at PRMT5/MEP50 complex (Table 9, compounds of Formula V and Formula VI, read-out: PRTMT5/MEP50 IC50) was 37 nM.
